According to US7470429B2, “Methods and compositions for increasing the target-specific toxicity of a chemotherapy drug” (priority 1998, dated 2008):

Key:
colorectal cancer = assay: Tumor therapy of colorectal cancer patient with bsMAb, DTPA-enzyme conjugates and CPT-11; format: in vivo, human; conditions: then standard dose CPT-11
Protocol: A patient with colorectal cancer is given an injection of the bsMAb comprised of an […]-14 cross-linked with an anti-DTPA Fab' fragment, prepared according to Example 3. After 48 h to allow for maximum accretion in tumors, an amount of galactose-[…], prepared according to Example 4, sufficient to clear nearly all non-target-bound MN-14-IgG ×734-Fab' from the circulation is administered. This amount is between 5 and 15 times the amount of primary bsMAb remaining in circulation at the time-point specified. Three hours after administration of the galactose-[…], a tumor-saturating amount of a mixture of the DTPA-CE and […] conjugates is given, and allowed to clear circulation and normal tissues. […] A patient with colorectal cancer is given an injection of the bsMAb as in Example 6. After 48 h to allow for maximum accretion in tumors, an excess amount of same mixture of the DTPA-CE and DTPA-glucuronidase conjugates as in Example 6 is given. Three hours later an amount of galactose-[…] sufficient to clear nearly all non-target-bound […]-IgG ×734-Fab'-DTPA-enzymes from the circulation is administered. This amount is between 5 and 15 times the amount of primary bsMAb complexes remaining in circulation at the time-point specified.

[1] = biological target: T1, human beta-D-glucuronidase (Homo sapiens, UniProt P08236); conditions: cited from earlier work
T1 sequence (P08236 23-651): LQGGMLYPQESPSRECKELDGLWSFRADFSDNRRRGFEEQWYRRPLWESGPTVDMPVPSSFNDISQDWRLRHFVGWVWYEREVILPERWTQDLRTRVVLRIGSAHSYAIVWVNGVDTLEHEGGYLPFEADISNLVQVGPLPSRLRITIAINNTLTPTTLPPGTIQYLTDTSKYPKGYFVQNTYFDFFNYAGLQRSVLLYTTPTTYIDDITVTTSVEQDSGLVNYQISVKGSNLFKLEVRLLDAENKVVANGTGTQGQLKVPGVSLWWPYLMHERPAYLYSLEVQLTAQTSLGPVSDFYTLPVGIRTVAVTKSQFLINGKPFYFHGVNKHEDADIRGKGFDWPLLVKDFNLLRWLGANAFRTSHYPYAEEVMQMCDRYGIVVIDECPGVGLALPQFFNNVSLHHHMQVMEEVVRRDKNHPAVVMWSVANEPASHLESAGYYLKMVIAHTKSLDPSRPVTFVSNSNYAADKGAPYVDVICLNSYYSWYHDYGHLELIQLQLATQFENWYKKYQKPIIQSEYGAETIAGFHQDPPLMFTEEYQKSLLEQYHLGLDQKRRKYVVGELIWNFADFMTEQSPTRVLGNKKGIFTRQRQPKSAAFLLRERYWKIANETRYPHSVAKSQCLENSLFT

[2] = pretreatment of rats; cited from earlier work
[3] = test system: uridine diphosphate glucuronosyl transferase (UDP-GT); conditions: pretreatment of rats; cited from earlier work
lymphoma = assay: Therapy of lymphoma in a human patient after pretargeting of enzyme conjugates; format: in vivo; conditions: 10 mg i.v. after pretargeted Fab′-glucuronidase and esterase conjugates; compared to 10 mg epirubicin prior to targeting
Protocol: A human patient suffering from lymphoma is infused intravenously with a sterile, pyrogen-free PBS solution containing 5 mg each of the 1-13 1-labeled anti-lymphoma Fab′-glucuronidase and esterase conjugates prepared according to Example 1 hereof.
The patient is then infused intravenously with a sterile, pyrogen-free PBS solution containing 10 mg of epirubicin methyl ester.

CCc1c2c(nc3ccc(OC(=O)N4CCC(N5CCCCC5)CC4)cc13)-c1cc3c(c(=O)n1C2)COC(=O)[C@]3(O)CC [CPT-11, irinotecan]
effect on tumors (colorectal cancer; Example 6: bsMAb, galactose-W12 clearing, then DTPA-enzyme conjugates): destroying the tumors | effect on tumors (colorectal cancer; Example 7: bsMAb, DTPA-enzyme conjugates, then galactose-W12 clearing): destroying said tumors

COc1cccc2c1C(=O)c1c(O)c3c(c(O)c1C2=O)C[C@@](O)(C(=O)CO)C[C@@H]3O[C@H]1C[C@H](N)[C@@H](O)[C@H](C)O1 [epirubicin]
substrate for human beta-D-glucuronidase [1]: substrate for human beta-D-glucuronidase

CCCC(CCC)C(=O)O [valproic acid]
AUC for SN-38 from subsequently-administered CPT-11 [2]: 270% | formation of SN-38G [3]: inhibited the formation of SN-38G

epirubicin methyl ester
reduction in the lymphoma by radioimmunodetection (lymphoma): significant reduction in the lymphoma
